Laboratory results as given in ChEMBL document CHEMBL1147947, “In vitro activity of novel dual action MDR anthranilamide modulators with inhibitory activity on CYP-450 (Part 2)” (Bioorg Med Chem, 2007).
Active and inactive are the calls of the source. No cut-off for these calls is given here.

Legend:
[1] = molecular target: T1, Cytochrome P450 1A2 (Homo sapiens, UniProt P05177); test: Inhibition of human CYP1A2 expressed in insect microsome after 15 mins; type: ADME, microsomes
T1 sequence (P05177 whole entry): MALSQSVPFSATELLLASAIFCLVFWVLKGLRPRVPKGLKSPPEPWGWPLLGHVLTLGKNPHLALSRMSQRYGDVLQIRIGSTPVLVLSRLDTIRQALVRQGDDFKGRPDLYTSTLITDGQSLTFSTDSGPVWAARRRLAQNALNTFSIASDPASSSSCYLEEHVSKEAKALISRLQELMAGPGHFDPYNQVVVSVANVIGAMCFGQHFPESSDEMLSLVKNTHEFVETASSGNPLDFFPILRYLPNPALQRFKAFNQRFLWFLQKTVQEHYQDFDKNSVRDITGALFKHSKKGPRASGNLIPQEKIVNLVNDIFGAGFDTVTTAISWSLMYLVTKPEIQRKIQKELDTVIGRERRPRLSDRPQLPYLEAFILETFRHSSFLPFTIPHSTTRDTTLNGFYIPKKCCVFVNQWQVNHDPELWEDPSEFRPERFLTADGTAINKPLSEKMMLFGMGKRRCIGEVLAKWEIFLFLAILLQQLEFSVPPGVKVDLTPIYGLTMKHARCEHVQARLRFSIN

[2] = molecular target: Cytochrome P450 2C9 (Homo sapiens, UniProt P11712); test: Inhibition of human CYP2C9 expressed in insect microsome after 45 mins; type: ADME, microsomes
[3] = molecular target: T2, Cytochrome P450 2B6 (Homo sapiens, UniProt P20813); test: Inhibition of human CYP2B6 expressed in insect microsome after 30 mins; type: ADME, microsomes
T2 sequence (P20813 whole entry): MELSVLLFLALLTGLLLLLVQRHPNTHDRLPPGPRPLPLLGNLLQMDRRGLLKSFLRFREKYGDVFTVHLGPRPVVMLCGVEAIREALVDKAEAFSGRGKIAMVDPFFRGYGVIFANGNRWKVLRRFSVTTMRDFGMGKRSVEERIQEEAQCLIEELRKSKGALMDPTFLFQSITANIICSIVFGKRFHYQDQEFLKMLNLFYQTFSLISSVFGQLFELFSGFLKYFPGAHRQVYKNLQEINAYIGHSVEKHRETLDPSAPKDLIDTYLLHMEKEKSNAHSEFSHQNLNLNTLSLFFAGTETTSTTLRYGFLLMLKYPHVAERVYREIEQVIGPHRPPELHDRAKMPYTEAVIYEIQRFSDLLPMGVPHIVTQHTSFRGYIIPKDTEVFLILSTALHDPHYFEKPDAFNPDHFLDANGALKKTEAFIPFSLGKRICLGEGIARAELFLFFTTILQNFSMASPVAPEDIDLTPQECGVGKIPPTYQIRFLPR

[4] = molecular target: T3, Cytochrome P450 2A6 (Homo sapiens, UniProt P11509); test: Inhibition of human CYP2A6 expressed in insect microsome after 15 mins; type: ADME, microsomes
T3 sequence (P11509 whole entry): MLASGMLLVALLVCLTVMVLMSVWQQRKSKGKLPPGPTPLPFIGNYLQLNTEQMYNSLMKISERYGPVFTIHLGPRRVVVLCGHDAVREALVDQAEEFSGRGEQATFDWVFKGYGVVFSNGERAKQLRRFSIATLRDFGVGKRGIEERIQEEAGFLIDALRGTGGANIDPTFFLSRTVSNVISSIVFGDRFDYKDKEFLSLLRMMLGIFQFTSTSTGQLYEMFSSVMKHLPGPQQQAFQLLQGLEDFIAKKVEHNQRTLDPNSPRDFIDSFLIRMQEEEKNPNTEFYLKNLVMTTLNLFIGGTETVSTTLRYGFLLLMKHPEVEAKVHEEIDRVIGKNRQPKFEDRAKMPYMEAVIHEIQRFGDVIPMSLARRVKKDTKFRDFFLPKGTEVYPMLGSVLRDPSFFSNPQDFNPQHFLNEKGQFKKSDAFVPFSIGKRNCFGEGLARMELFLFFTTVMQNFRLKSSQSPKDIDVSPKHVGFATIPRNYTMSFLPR

[5] = molecular target: Cytochrome P450 2C19 (Homo sapiens, UniProt P33261); test: Inhibition of human CYP2C19 expressed in insect microsome after 30 mins; type: ADME, microsomes
[6] = molecular target: T4, Cytochrome P450 2C8 (Homo sapiens, UniProt P10632); test: Inhibition of human CYP2C8 expressed in insect microsome after 30 mins; type: ADME, microsomes
T4 sequence (P10632 whole entry): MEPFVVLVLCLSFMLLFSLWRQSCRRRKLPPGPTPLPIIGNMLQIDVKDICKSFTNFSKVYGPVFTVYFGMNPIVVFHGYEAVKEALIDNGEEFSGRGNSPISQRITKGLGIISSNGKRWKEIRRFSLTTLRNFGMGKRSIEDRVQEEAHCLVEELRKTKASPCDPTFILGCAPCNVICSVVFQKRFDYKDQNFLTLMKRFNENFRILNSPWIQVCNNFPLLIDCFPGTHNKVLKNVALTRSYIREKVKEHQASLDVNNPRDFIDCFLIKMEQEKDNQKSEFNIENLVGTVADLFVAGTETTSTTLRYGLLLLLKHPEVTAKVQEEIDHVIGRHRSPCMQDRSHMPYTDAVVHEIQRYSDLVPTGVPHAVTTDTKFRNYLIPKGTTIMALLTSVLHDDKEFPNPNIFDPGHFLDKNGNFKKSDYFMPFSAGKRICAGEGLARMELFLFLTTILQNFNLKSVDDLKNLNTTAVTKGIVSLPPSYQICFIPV

[7] = molecular target: Cytochrome P450 3A4 (Homo sapiens, UniProt P08684); test: Inhibition of human CYP3A4 expressed in insect microsome using 7-benzyloxy-4-trifluoromethylcoumarin substrate after 30 mins; type: ADME, microsomes
[8] = molecular target: Cytochrome P450 2D6 (Homo sapiens, UniProt P10635); test: Inhibition of human CYP2D6 expressed in insect microsome after 30 mins; type: ADME, microsomes
[9] = molecular target: Cytochrome P450 2E1 (Homo sapiens, UniProt P05181); test: Inhibition of human CYP2E1 expressed in insect microsome after 45 mins; type: ADME, microsomes
[10] = Growth inhibition of human CEM/VLB500 cells after 3 days by resazurin assay; type: functional; conditions: CEM/VLB500, 72 h
[11] = test system: CEM/VLB500; test: Growth inhibition of human CEM/VLB500 cells at 1 uM after 3 days by resazurin assay; type: functional, cell-based

Cytochrome P450 2C19, sequence (P33261 whole entry): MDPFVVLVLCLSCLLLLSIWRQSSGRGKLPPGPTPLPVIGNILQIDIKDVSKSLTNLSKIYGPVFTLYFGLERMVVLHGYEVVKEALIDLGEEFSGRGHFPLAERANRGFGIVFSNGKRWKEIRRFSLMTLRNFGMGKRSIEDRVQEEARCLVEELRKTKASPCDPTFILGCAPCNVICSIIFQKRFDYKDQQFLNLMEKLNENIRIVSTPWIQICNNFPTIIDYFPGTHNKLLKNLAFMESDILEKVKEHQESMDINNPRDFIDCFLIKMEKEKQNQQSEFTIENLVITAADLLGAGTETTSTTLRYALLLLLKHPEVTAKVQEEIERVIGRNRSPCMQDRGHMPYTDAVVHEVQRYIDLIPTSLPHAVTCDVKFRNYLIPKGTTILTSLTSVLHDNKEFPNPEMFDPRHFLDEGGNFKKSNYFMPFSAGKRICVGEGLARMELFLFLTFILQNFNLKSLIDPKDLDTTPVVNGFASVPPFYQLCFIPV
Cytochrome P450 3A4, sequence (P08684 whole entry): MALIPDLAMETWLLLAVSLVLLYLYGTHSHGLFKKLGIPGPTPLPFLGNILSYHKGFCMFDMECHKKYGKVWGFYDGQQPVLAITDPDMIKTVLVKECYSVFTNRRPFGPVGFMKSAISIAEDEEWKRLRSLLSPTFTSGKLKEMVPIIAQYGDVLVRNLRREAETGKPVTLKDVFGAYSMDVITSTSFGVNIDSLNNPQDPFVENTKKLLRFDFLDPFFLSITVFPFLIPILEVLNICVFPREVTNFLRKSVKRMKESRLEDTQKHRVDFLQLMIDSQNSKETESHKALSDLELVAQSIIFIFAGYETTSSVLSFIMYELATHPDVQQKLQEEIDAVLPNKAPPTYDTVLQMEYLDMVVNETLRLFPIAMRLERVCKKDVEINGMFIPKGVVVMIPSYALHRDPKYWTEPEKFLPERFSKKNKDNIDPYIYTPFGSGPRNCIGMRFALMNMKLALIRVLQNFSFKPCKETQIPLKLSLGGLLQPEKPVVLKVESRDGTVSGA
Cytochrome P450 2C9, sequence (P11712 whole entry): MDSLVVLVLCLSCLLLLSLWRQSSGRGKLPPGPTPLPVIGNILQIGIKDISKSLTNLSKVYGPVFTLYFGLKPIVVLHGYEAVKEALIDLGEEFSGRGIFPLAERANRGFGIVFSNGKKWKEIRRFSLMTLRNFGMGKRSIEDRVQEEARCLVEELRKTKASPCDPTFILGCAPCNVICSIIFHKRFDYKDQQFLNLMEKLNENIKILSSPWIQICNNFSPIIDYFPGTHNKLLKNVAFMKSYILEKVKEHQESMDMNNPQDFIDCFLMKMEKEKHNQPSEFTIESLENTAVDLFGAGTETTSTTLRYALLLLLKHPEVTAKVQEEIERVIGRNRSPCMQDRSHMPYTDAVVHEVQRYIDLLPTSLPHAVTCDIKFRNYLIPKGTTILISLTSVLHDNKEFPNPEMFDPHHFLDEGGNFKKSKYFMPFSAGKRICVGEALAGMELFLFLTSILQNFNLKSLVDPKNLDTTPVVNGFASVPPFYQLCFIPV
Cytochrome P450 2D6, sequence (P10635 whole entry): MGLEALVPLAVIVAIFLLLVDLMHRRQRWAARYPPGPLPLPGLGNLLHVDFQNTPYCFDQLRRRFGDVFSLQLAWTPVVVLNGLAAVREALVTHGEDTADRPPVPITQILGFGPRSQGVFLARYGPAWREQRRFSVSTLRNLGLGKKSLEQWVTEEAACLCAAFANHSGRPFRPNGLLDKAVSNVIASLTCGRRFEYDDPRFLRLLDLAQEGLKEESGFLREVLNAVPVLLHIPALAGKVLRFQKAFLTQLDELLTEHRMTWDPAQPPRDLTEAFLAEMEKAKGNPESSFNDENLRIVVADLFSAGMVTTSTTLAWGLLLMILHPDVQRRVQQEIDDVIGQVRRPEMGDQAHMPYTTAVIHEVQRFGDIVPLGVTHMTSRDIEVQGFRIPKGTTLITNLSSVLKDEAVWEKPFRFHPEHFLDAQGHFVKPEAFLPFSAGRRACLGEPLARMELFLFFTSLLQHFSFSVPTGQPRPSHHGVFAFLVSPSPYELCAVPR
Cytochrome P450 2E1, sequence (P05181 whole entry): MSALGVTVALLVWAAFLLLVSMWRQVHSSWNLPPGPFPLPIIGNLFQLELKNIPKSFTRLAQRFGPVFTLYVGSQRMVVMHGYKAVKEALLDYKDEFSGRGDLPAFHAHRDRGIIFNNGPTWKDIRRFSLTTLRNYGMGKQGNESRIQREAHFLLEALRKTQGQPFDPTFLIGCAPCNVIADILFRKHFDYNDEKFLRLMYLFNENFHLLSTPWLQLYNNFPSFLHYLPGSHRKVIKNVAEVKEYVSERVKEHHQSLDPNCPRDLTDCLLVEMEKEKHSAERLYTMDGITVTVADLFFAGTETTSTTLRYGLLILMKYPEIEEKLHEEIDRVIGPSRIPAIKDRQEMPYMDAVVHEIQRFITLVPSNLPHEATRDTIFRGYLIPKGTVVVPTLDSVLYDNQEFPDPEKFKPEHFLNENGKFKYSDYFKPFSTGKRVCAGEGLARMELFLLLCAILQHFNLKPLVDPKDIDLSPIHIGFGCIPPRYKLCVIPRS

SMILES	IC50 [1] [µM]	IC50 [2] [µM]	IC50 [3] [µM]	IC50 [4] [µM]	IC50 [5] [µM]	IC50 [6] [µM]	IC50 [7] [µM]	IC50 [8] [µM]	IC50 [9] [µM]	GI50 [10] [µM]	Activity [11]
COc1ccc(CCN(C)CCNC(=O)c2ccccc2NC(=O)c2cnc3ccccc3c2)cc1OC	> 100	2.08	> 100	> 100	14.7	5.82	1.62	> 100	> 100		
COc1ccc(CCN(C)CCC[C@@](C#N)(c2ccc(OC)c(OC)c2)C(C)C)cc1OC										> 15	
COc1ccc(CCN2CCC[C@H]2CNC(=O)c2ccccc2NC(=O)c2cnc3ccccc3c2)cc1OC										> 15	
COc1ccc(CCN2CCC[C@@H]2CNC(=O)c2ccccc2NC(=O)c2cnc3ccccc3c2)cc1OC										> 15	
COc1ccc(CN2CCN(c3ccc(NC(=O)c4cc(OC)c(OC)cc4NC(=O)c4cnc5ccccc5c4)cc3)CC2)cc1OC	6.68	0.0968	100		0.393	1.08	0.195	17.3		≥ 15	inactive
COc1cc2c(cc1OC)CN(CCc1ccc(NC(=O)c3cc(OC)c(OC)cc3NC(=O)c3cnc4ccccc4c3)cc1)CC2		7.1	> 100	> 100	> 10	45.3		100	> 100	13.5	
O=C(Nc1ccccc1C(=O)N[C@@H]1CCCC[C@@H]1N1CCN(c2ccccc2)CC1)c1cnc2ccccc2c1 (racemic)										11.5	
COc1ccc(CN2CCN(c3ccc(NC(=O)c4ccccc4NC(=O)c4cnc5ccccc5c4)cc3)CC2)cc1OC	> 100	> 10	> 100	> 100	23	13.3	20.2	> 100	> 100	> 15	
